{"source": "ChEMBL document CHEMBL1821627", "about": "“Medicinal chemistry as a conduit for the modulation of quorum sensing” (J Med Chem, 2010)", "key": {"[1]": {"assay": "Inhibition of quorum sensing Salmonella Typhimurium by beta-galactosidase transcription assay in presence of 50 uM DPD", "design": "species or system Salmonella enterica subsp. enterica serovar Typhimurium"}, "[2]": {"assay": "Inhibition of quorum sensing regulated bioluminescence in Vibrio harveyi"}, "[3]": {"assay": "Inhibition of autoinducer-stimulated quorum sensing regulated bioluminescence in Vibrio fischeri by luminescence assay", "design": "species or system Aliivibrio fischeri"}, "[4]": {"assay": "Inhibition of Staphylococcus aureus Quorum sensing system AgrC-I activation after 60 to 90 minutes by beta-lactamase reporter assay", "details": "read-out: IC50"}, "[5]": {"assay": "Inhibition of Staphylococcus aureus Quorum sensing system AgrC-II activation after 60 to 90 minutes by beta-lactamase reporter assay", "details": "read-out: IC50"}, "[6]": {"target": "T1, Transcriptional activator protein LasR (Pseudomonas aeruginosa (strain ATCC 15692 / PAO1 / 1C / PRS 101 / LMG12228), UniProt P25084)", "T1 sequence (P25084 whole entry)": "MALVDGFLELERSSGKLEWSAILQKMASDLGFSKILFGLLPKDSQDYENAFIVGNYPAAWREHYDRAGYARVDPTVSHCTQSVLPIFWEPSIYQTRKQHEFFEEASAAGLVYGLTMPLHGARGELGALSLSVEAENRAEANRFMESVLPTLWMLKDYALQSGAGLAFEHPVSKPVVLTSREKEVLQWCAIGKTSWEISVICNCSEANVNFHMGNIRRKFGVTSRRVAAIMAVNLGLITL", "assay": "Antagonist activity at Pseudomonas aeruginosa LasR receptor expressed in Escherichia coli in presence of 7.5 nM natural auto-inducer 3-oxo-C12-HSL", "assay_type": "functional"}, "Aliivibrio fischeri": {"test_system": "Aliivibrio fischeri", "assay": "Induction of quorum sensing regulated bioluminescence in Vibrio fischeri by luminescence assay relative to natural autoinducer"}, "[7]": {"assay": "Induction of quorum sensing activity in Pseudomonas aeruginosa assessed as maximal induction of LasR-dependent yellow fluorescent protein emission by luminescence assay"}, "[8]": {"target": "T1, Transcriptional activator protein LasR", "assay": "Agonist activity at Pseudomonas aeruginosa LasR cognate receptor expressed in Escherichia coli harboring pKDT17 assessed as activation of lasB expression by LacZ reporter gene assay", "assay_type": "functional"}, "[9]": {"target": "T1, Transcriptional activator protein LasR", "assay": "Antagonist activity at Pseudomonas aeruginosa LasR receptor assessed as inhibition of bioluminescence by reporter gene assay", "assay_type": "functional"}, "[10]": {"target": "T2, Autoinducer 1 sensor kinase/phosphatase LuxN (Vibrio harveyi, UniProt P0C5S6)", "T2 sequence (P0C5S6 whole entry)": "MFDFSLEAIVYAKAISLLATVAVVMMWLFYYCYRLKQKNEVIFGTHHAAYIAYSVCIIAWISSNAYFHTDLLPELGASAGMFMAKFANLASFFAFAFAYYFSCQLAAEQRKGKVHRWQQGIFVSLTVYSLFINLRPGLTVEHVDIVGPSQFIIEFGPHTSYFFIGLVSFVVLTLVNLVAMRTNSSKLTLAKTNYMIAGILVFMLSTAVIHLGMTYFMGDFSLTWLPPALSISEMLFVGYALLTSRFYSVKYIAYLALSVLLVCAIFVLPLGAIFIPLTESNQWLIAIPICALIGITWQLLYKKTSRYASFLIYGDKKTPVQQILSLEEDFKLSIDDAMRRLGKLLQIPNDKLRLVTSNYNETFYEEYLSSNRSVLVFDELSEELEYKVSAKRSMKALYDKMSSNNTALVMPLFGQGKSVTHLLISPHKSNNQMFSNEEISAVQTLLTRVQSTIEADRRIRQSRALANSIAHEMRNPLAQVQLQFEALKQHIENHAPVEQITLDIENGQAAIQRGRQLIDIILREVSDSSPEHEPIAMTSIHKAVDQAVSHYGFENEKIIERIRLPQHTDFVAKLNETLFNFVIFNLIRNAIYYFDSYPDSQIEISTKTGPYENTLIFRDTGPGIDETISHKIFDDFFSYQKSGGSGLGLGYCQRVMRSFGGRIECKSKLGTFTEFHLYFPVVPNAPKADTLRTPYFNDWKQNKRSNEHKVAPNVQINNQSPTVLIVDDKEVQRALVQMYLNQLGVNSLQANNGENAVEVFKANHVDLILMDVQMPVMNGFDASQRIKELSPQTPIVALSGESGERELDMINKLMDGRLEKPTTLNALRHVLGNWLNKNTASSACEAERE", "assay": "Inhibition of LuxN-dependent bioluminescence in Vibrio harveyi"}, "[11]": {"test_system": "Chromobacterium violaceum", "assay": "In vivo inhibition of violacein production in Chromobacterium violaceum", "assay_type": "functional, organism-based"}, "[12]": {"assay": "Inhibition of quorum sensing in Pseudomonas aeruginosa assessed as inhibition of LasR-dependent yellow fluorescent protein emission by luminescence assay"}}, "note": "Where a SMILES comes first, the peptide text is derived from it. Bridges are numbered along the chain shown (N, C = ends). [ ]: non-standard residue; d: D form. NMeS = CN[C@@H](CO)C(=O)O; Dap = NC[C@H](N)C(=O)O; Ava = NCCCCC(=O)O", "data": [{"smiles": "CCC(=O)C(=O)[C@@H](O)CO", "values": [{"measurement": "IC50", "setting": "[1]", "value": "> 50", "unit": "µM"}]}, {"smiles": "O=C(c1ccccc1)c1ccc(O)c(O)c1O", "values": [{"measurement": "IC50", "setting": "[2]", "value": 4, "unit": "µM"}]}, {"smiles": "CCCCCCCCC(=O)N[C@H]1CCOC1=O", "values": [{"measurement": "IC50", "setting": "[3]", "value": 0.0124, "unit": "µM"}]}, {"smiles": "NC(=O)CS(=O)(=O)c1cccs1", "values": [{"measurement": "IC50", "setting": "[2]", "value": "> 400", "unit": "µM"}]}, {"smiles": "CC(=O)N[C@H]1CSC(=O)[C@H](Cc2ccccc2)NC(=O)[C@H](CC(C)C)NC(=O)[C@H](CO)NC(=O)CNC1=O", "note": "(Ac-CGSLF; thioester 1-C)", "values": [{"measurement": "IC50", "setting": "[4]", "value": 0.189, "unit": "µM"}, {"measurement": "IC50", "setting": "[5]", "value": 1.16, "unit": "µM"}]}, {"smiles": "CCOC(=O)CS(=O)(=O)c1ccc(-c2ccccc2)cc1", "values": [{"measurement": "IC50", "setting": "[2]", "value": 8.7, "unit": "µM"}]}, {"smiles": "O=C(CCc1ccc(Br)cc1)N[C@H]1CCOC1=O", "values": [{"measurement": "IC50", "setting": "[6]", "value": 0.34, "unit": "µM"}]}, {"smiles": "Cc1ccc(B(O)O)c(F)c1", "values": [{"measurement": "IC50", "setting": "[2]", "value": 4, "unit": "µM"}]}, {"smiles": "NC(=S)CS(=O)(=O)c1ccccn1", "values": [{"measurement": "IC50", "setting": "[2]", "value": 35, "unit": "µM"}]}, {"smiles": "O=Cc1ccc(O)c(O)c1O", "values": [{"measurement": "IC50", "setting": "[2]", "value": 4, "unit": "µM"}]}, {"smiles": "CC(=O)CCCC(=O)N[C@H]1CCOC1=O", "values": [{"measurement": "Activity", "setting": "Aliivibrio fischeri", "value": 10, "unit": "%"}]}, {"smiles": "Cc1cc(Br)cc(CNC(=O)c2ccccc2Cl)c1OC(=O)c1ccc(Cl)cc1Cl", "values": [{"measurement": "EC50", "setting": "[7]", "value": 0.92, "unit": "µM"}]}, {"smiles": "CCCCCC(=O)CC(=O)N[C@H]1CCOC1=O", "values": [{"measurement": "Activity", "setting": "Aliivibrio fischeri", "value": 50, "unit": "%"}, {"measurement": "EC50", "setting": "[8]", "value": 0.15, "unit": "µM"}]}, {"smiles": "O=C(CCCCCCCCCNC(=O)CBr)CC(=O)N[C@H]1CCOC1=O", "values": [{"measurement": "IC50", "setting": "[9]", "value": 100, "unit": "µM"}]}, {"smiles": "CC(C)(c1ccccc1)c1ccc(OCC(=O)NC2CCCC2)cc1", "values": [{"measurement": "IC50", "setting": "[10]", "value": 2.4, "unit": "µM"}]}, {"smiles": "O=C(Oc1c(Br)cc(Br)cc1CNC(=O)c1ccccc1Cl)c1ccc(F)cc1", "values": [{"measurement": "EC50", "setting": "[7]", "value": 0.24, "unit": "µM"}]}, {"smiles": "O=C(CCCOc1ccc(Cl)cc1)NC1CCSC1=O", "note": "(configuration not stated)", "values": [{"measurement": "IC50", "setting": "[11]", "value": 0.723, "unit": "µM"}]}, {"smiles": "O=C(CCCCCCCCCN=C=S)CC(=O)N[C@H]1CCOC1=O", "values": [{"measurement": "IC50", "setting": "[9]", "value": 113, "unit": "µM"}]}, {"smiles": "O=C(Nc1ccccc1NC(=O)c1cccc(Cl)c1)c1cccc(Cl)c1", "values": [{"measurement": "IC50", "setting": "[12]", "value": 50, "unit": "µM"}]}, {"smiles": "CC(=O)N[C@H]1CSC(=O)[C@H](Cc2ccccc2)NC(=O)[C@H](CC(C)C)NC(=O)[C@H](CO)NC(=O)[C@H](CO)N(C)C1=O", "note": "(Ac-C[NMeS]SLF; thioester 1-C)", "values": [{"measurement": "IC50", "setting": "[4]", "value": 0.639, "unit": "µM"}, {"measurement": "IC50", "setting": "[5]", "value": 7.88, "unit": "µM"}]}, {"smiles": "CC(C)OC(=O)CSc1nc2ccccc2[nH]1", "values": [{"measurement": "IC50", "setting": "[10]", "value": 62.3, "unit": "µM"}]}, {"smiles": "CCCCCCC(=O)C(=O)[C@@H](O)CO", "values": [{"measurement": "IC50", "setting": "[1]", "value": 24.9, "unit": "µM"}]}, {"smiles": "Cc1cc(Cl)ccc1OCCCC(=O)NC1CCSC1=O", "note": "(configuration not stated)", "values": [{"measurement": "IC50", "setting": "[11]", "value": 1.2, "unit": "µM"}]}, {"smiles": "CCCCCCCCCCCCn1nnc(CC(=O)O)n1", "values": [{"measurement": "IC50", "setting": "[12]", "value": 0.03, "unit": "µM"}]}, {"smiles": "CCCCCCCCCNC(=O)CC(=O)c1ccccc1", "values": [{"measurement": "IC50", "setting": "[12]", "value": 10, "unit": "µM"}]}, {"smiles": "O=C(CCCCCCCCN=C=S)CC(=O)N[C@H]1CCOC1=O", "values": [{"measurement": "IC50", "setting": "[9]", "value": 300, "unit": "µM"}]}, {"smiles": "CCCC(=O)CC(=O)N[C@H]1CCSC1=O", "values": [{"measurement": "IC50", "setting": "[3]", "value": 0.131, "unit": "µM"}]}, {"smiles": "O=C(CCCCCCCCCCN=C=S)CC(=O)N[C@H]1CCOC1=O", "values": [{"measurement": "IC50", "setting": "[9]", "value": 45.2, "unit": "µM"}]}, {"smiles": "CCOC(=S)CS(=O)(=O)c1cccs1", "values": [{"measurement": "IC50", "setting": "[2]", "value": 22, "unit": "µM"}]}, {"smiles": "CC(=O)N[C@H]1CNC(=O)[C@H](Cc2ccccc2)NC(=O)[C@H](CC(C)C)NC(=O)[C@H](CO)NC(=O)[C@H](CO)NC1=O", "note": "(Ac-[Dap]SSLF; lactam 1-C)", "values": [{"measurement": "IC50", "setting": "[4]", "value": 1.39, "unit": "µM"}, {"measurement": "IC50", "setting": "[5]", "value": 167, "unit": "µM"}]}, {"smiles": "[N-]=[N+]=NCCCCC(=O)C(=O)[C@@H](O)CO", "values": [{"measurement": "IC50", "setting": "[1]", "value": 20.3, "unit": "µM"}]}, {"smiles": "O=C(c1ccc(Cl)cc1)c1ccc(S(=O)(=O)c2ccc(Cl)cc2)cc1", "values": [{"measurement": "IC50", "setting": "[10]", "value": 2.6, "unit": "µM"}]}, {"smiles": "CC(=O)N[C@H]1CSC(=O)[C@H](Cc2ccccc2)NC(=O)[C@H](CC(C)C)NC(=O)CNC(=O)CNC1=O", "note": "(Ac-CGGLF; thioester 1-C)", "values": [{"measurement": "IC50", "setting": "[4]", "value": 0.077, "unit": "µM"}, {"measurement": "IC50", "setting": "[5]", "value": 0.238, "unit": "µM"}]}, {"smiles": "CC(=O)N[C@H]1CSC(=O)[C@H](Cc2ccccc2)NC(=O)[C@H](CC(C)C)NC(=O)CCCCNC1=O", "note": "(Ac-C[Ava]LF; thioester 1-C)", "values": [{"measurement": "IC50", "setting": "[4]", "value": 1.14, "unit": "µM"}, {"measurement": "IC50", "setting": "[5]", "value": 507, "unit": "µM"}]}, {"smiles": "CC(=O)N[C@H]1CSC(=O)[C@H](Cc2ccccc2)NC(=O)[C@H](CC(C)C)NC(=O)[C@H](CO)N(C)C(=O)[C@H](CO)NC1=O", "note": "(Ac-CS[NMeS]LF; thioester 1-C)", "values": [{"measurement": "IC50", "setting": "[4]", "value": 0.319, "unit": "µM"}, {"measurement": "IC50", "setting": "[5]", "value": 1.05, "unit": "µM"}]}]}
